Measurements published in ChEMBL document CHEMBL5260858, “Targeting mycobacterial membranes and membrane proteins: Progress and limitations” (Bioorg Med Chem, 2023).
≈ marks a conversion by molar mass, not a printed value.

Tests used:
[1] = tested on: Mycobacterium tuberculosis; assay: Antitubercular activity against multidrug resistant Mycobacterium tuberculosis clinical isolate assessed as bacterial growth inhibition; format: functional
[2] = tested on: Mycobacterium tuberculosis; assay: Antitubercular activity against rifampicin resistant Mycobacterium tuberculosis ATCC 35838 infected in RAW264.7 cells assessed as inhibition of intracellular bacterial growth incubated for 6 days by microplate alamar blue assay; format: functional; set-up: scale not given: the % may be the effect or the level left; settings: time 6 day
[3] = tested on: Mycobacterium tuberculosis; assay: Antitubercular activity against ethambutol resistant Mycobacterium tuberculosis ATCC 35837 inhibition infected in RAW264.7 cells assessed as inhibition of intracellular bacterial growth incubated for 6 days by microplate alamar blue assay; format: functional; set-up: scale not given: the % may be the effect or the level left; settings: time 6 day
[4] = tested on: Mycobacterium tuberculosis; assay: Antitubercular activity against isoniazid resistant Mycobacterium tuberculosis ATCC 35822 infected in RAW264.7 cells assessed as inhibition of intracellular bacterial growth incubated for 6 days by microplate alamar blue assay; format: functional; set-up: scale not given: the % may be the effect or the level left; settings: time 6 day
[5] = tested on: Mycobacterium tuberculosis; assay: Antimycobacterial activity against multidrug resistant Mycobacterium tuberculosis 16995 assessed as bacterial growth inhibition incubated for 7 days by microplate Alamar blue assay; format: functional; settings: Mycobacterium tuberculosis, 16995, 168 h; time 7 day
[6] = tested on: Mycobacterium tuberculosis; assay: Antimycobacterial activity against multidrug resistant Mycobacterium tuberculosis 16833 assessed as bacterial growth inhibition incubated for 7 days by microplate Alamar blue assay; format: functional; settings: Mycobacterium tuberculosis, 16833, 168 h; time 7 day
[7] = tested on: Mycobacterium tuberculosis; assay: Antitubercular activity against multidrug-resistant clinical isolate Mycobacterium tuberculosis CDCT-27 assessed as bacterial growth inhibition; format: functional
[8] = tested on: Mycobacterium tuberculosis; assay: Antitubercular activity against multidrug-resistant clinical isolate Mycobacterium tuberculosis CDCT-3 assessed as bacterial growth inhibition; format: functional
[9] = tested on: Mycobacterium tuberculosis; assay: Antitubercular activity against multidrug-resistant clinical isolate Mycobacterium tuberculosis CDCT-2 assessed as bacterial growth inhibition; format: functional
[10] = tested on: Mycobacterium tuberculosis; assay: Antimycobacterial activity against clinically isolated multidrug resistant Mycobacterium tuberculosis assessed as bacterial growth inhibition incubated for 14 days by CLSI protocol based assay; format: functional; settings: 336 h, time 14 day
[11] = tested on: Mycobacterium tuberculosis; assay: Antitubercular activity against multidrug resistant Mycobacterium tuberculosis assessed as bacterial growth inhibition incubated for 6 days by resazurin based fluorescence assay; format: functional; settings: 144 h, time 6 day
[12] = tested on: Mycobacterium tuberculosis; assay: Antitubercular activity against extensively drug resistant Mycobacterium tuberculosis assessed as bacterial growth inhibition incubated for 6 days by resazurin based fluorescence assay; format: functional; settings: 144 h, time 6 day
[13] = tested on: Mycobacterium tuberculosis; assay: Antitubercular activity against multidrug resistant Mycobacterium tuberculosis SK-7782 assessed as bacterial growth inhibition by resazurin microtiter assay; format: functional
[14] = tested on: Mycobacterium tuberculosis; assay: Antimycobacterial activity against BTZ-resistant Mycobacterium tuberculosis NTB1 assessed as bacterial growth inhibition incubated for 6 days by resazurin dye based assay; format: functional; settings: NTB1, 144 h, time 6 day
[15] = tested on: Mycobacterium tuberculosis; assay: Antitubercular activity against Mycobacterium tuberculosis H37Rv overexpressing DprE1 assessed as bacterial growth inhibition; format: functional
[16] = tested on: Mycobacterium tuberculosis; assay: microbe, parasite or virus in culture; settings: 144 h
[17] = tested on: Mycobacterium tuberculosis; assay: microbe, parasite or virus in culture; settings: 144 h; remark: listed apart in the source

COc1nc2ccc(Br)cc2cc1[C@@H](c1ccccc1)[C@@](O)(CCN(C)C)c1cccc2ccccc12 [BEDAQUILINE]
MIC [1]: 10 ng/mL (≈ 0.018 µM)

CC(C)=CCC/C(C)=C/CNCCNC1C2CC3CC(C2)CC1C3 (stereo not given) [SQ109]
Activity [2]: 99% | Activity [3]: 99% | Activity [4]: 99%

O=c1nc(N2CC3CN(Cc4ccc(OC(F)(F)F)cc4)CC3C2)sc2c([N+](=O)[O-])cc(C(F)(F)F)cc12 (stereo not given)
MIC [5]: 0.053 µM (≈ 0.0297 µg/mL) | MIC [6]: 0.085 µM (≈ 0.0476 µg/mL)

CCCCCc1ccc(NC(=O)COc2cc(C)nc3ccc(OC)cc23)cc1
MIC [7]: < 2 ng/mL | MIC [8]: < 2 ng/mL | MIC [9]: < 2 ng/mL

C[C@@]1(COc2ccc(N3CCC(Oc4ccc(OC(F)(F)F)cc4)CC3)cc2)Cn2cc([N+](=O)[O-])nc2O1
MIC [10]: 6 ng/mL (≈ 0.0112 µM)

O=c1nc(N2CC3CN(Cc4ccc(Cl)c(F)c4)CC3C2)sc2c([N+](=O)[O-])cc(C(F)(F)F)cc12 (stereo not given)
MIC [5]: 0.073 µM (≈ 0.0386 µg/mL) | MIC [6]: 0.102 µM (≈ 0.0539 µg/mL)

c1cc2c(s1)CCOC21CCN(Cc2ccc3c(c2)OCCO3)CC1
MIC [11]: 0.3 µM (≈ 0.107 µg/mL) | MIC [12]: 0.3 µM (≈ 0.107 µg/mL)

CCc1ccc(NC(=O)COc2cc(C)nc3ccc(OC)cc23)cc1
MIC [7]: 8 ng/mL (≈ 0.0228 µM) | MIC [8]: 8 ng/mL (≈ 0.0228 µM) | MIC [9]: < 2 ng/mL

COc1ccc(/C=C2/S/C(=N/N=C/c3ccccc3O)NC2=O)cc1
MIC90 [13]: 1000 ng/mL (≈ 2.83 µM)

CCS(=O)(=O)N1CCN(c2nc(=O)c3cc(C(F)(F)F)cc([N+](=O)[O-])c3s2)CC1
MIC [14]: 25100 ng/mL (≈ 55.5 µM)

O=c1nc(N2CCN(S(=O)(=O)C3CC3)CC2)sc2c([N+](=O)[O-])cc(C(F)(F)F)cc12
MIC [14]: 14700 ng/mL (≈ 31.7 µM)

O=c1nc(N2CCN(S(=O)(=O)c3cccs3)CC2)sc2c([N+](=O)[O-])cc(C(F)(F)F)cc12
MIC [14]: > 100000 ng/mL

CCc1ccc([C@H]2C[C@@H](C(F)(F)F)n3ncc(C(=O)NCc4ccc(OC)cc4)c3N2)cc1
MIC [11]: 0.16 µM (≈ 0.0734 µg/mL) | MIC [12]: 0.3 µM (≈ 0.138 µg/mL)

CCCc1ccc(NC(=O)COc2cc(C)nc3ccc(OC)cc23)cc1
MIC [7]: 4 ng/mL (≈ 0.011 µM) | MIC [8]: 8 ng/mL (≈ 0.022 µM) | MIC [9]: < 2 ng/mL

CC1(C)CC(=O)C(=CNc2ccccc2O)C(=O)C1
MIC90 [13]: 8000 ng/mL (≈ 30.9 µM)

C[C@@H](NC(=O)c1cc([N+](=O)[O-])cc(C(F)(F)F)c1)c1ccccc1
MIC [15]: 310 ng/mL (≈ 0.916 µM)

CNC(=O)c1c(-c2ccc(O)cc2)oc2ccc(O)c(CN3CCCCC3)c12
MIC [16]: 0.06 µM (≈ 0.0228 µg/mL) | MIC [17]: 0.125 µM (≈ 0.0476 µg/mL)
